From the Kinase Knowledgebase extract (Sharma et al. 2016)

Biological target: EGFR (human) (UniProt P00533)
Conditions: a431

Sequence of EGFR (human) (P00533 whole entry, looked up): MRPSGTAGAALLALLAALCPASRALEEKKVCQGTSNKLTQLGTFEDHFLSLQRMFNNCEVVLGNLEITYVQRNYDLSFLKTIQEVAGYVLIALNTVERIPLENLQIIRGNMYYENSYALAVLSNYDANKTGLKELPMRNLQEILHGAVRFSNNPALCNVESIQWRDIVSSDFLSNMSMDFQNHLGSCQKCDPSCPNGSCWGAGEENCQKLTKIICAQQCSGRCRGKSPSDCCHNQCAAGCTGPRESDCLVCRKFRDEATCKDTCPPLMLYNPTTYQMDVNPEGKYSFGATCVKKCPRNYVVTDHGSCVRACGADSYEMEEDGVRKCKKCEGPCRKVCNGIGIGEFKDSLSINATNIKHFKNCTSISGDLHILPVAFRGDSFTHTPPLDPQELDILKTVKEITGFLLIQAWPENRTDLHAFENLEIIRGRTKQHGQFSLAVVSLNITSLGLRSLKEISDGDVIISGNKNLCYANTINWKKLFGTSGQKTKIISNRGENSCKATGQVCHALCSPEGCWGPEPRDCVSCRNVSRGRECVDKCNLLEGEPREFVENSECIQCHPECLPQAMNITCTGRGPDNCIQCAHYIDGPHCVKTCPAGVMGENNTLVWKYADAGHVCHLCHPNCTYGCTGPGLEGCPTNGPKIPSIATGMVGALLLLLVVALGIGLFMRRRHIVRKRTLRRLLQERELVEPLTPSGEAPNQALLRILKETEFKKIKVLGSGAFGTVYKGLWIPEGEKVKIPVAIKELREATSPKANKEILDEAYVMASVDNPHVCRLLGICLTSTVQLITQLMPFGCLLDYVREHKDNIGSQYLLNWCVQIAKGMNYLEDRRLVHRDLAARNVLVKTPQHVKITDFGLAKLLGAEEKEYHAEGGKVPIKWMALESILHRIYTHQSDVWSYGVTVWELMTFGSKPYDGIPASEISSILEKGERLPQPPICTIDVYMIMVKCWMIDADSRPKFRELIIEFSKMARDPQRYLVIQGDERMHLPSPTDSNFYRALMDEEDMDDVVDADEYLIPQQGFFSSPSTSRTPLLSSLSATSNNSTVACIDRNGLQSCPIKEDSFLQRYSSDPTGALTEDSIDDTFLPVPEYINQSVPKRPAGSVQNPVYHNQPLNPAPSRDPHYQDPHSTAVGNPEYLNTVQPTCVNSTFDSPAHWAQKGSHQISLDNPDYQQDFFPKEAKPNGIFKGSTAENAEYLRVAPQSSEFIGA

| Compound | IC50 [µM] |
| --- | --- |
| Cc1nc2cc3ncc(-c4cccs4)nc3cc2n1C | > 30 |
| Cc1cc2ncc(-c3cccs3)nc2cc1C | > 30 |
| c1ccc(-c2cnc3cc4ccccc4cc3n2)cc1 | > 100 |
| Cc1nc2cc3nc(-c4cccs4)cnc3cc2n1C | > 30 |
| COc1cc2ncc(-c3ccccc3)nc2cc1OC | > 100 |

Results, then the compound that gave them:

| IC50 [µM] | Compound |
| --- | --- |
| > 30 | Cc1nc2cc3nc(-c4cc[cH-]c4)cnc3cc2n1C.[Fe+2].c1cc[cH-]c1 |
| > 30 | Cc1nc2cc3nc(-c4ccccc4)cnc3cc2n1C |
| > 30 | Cc1nc2cc3ncc(-c4ccccc4)nc3cc2n1C |
| > 100 | Cc1cc2ncc(-c3ccccc3)nc2cc1C |
| > 30 | Cc1cc2ncc(-c3cc[cH-]c3)nc2cc1C.[Fe+2].c1cc[cH-]c1 |
